A short description of series [1]: Active site analysis: rate constants for the active sites in lactose hydrolysis. The settings on record: 100° C.; for rate constant for the active site G1H (kG1H): homogeneous catalyst. As for the experimental part: Addition of Ca(OAc)2 for the investigation of catalytic active sites: The rate constants for H^+ and non-dissociated carboxylic acid from the acid catalysts were determined by combining results from separate reaction kinetics experiments. […] In the presence of different amounts of Ca(OAc)2, the predicted rates can be calculated by using a linear combination of the rate constants and the concentrations of corresponding active sites (equation in FIG. 1C). […] The kG1H value for each biomimetic catalyst was then used to calculate the turnover frequency (TOF=kG1H·[Lactose]0) for comparison of catalytic activities from the engineered biomimetic catalysts in FIG. 2A. […] This analysis accounts for the contributions from the catalytic activity of H^+ (pH effect) and the catalytic activity of the active site (G1H).

Series [2] in a line: Reaction kinetics analysis for lactose hydrolysis. The note with it: 100° C. As for the experimental part:
The glass vial was capped to prevent the solvent from evaporation, and the hydrolysis reaction was carried out at 100° C. in an oil bath (120 and 90° C. were used to measure activation energies) with 600-800 rpm stirring. […] 0.105 g (=0.1 mL) of liquid sample solution was collected at each day (every 18-26 h) for 5 days and diluted in 0.399 g (=0.4 mL) of MQ water for the reaction kinetics analysis, and the diluted sample was filtered by syringe filter (20 μm pore) and analyzed by HPLC.
(§1) The chemical concentrations of hydrolyzed lactose solutions were quantified by high performance liquid chromatography (HPLC) analysis. The hydrolyzed solutions with immobilized catalysts were centrifuged (2500 rpm, 20 min) to separate the immobilized catalyst in the aqueous phase solution. 0.105 g (0.1 mL) of the aqueous solution was diluted in 0.399 g (0.4 mL) of Milli-Q water (5 times dilution by volume) to analyze the concentrations of lactose, glucose, galactose, and HMF as one of by-products by glucose degradation. […] The temperature of the HPLC column was maintained at 50° C., and the flow rate of the mobile phase (pH 2 water, acidified by sulfuric acid) was 0.6 mL/min.

Series [3] in a line: Solubility of the organocatalyst in water. It counts as physicochemical. The note with it: in water at 100° C.; read-out: solubility limit. From the text: Immobilization of the organocatalyst on a solid support material can prevent catalyst precipitation by distributing the organocatalyst on the surface of the support. […] Catalytic reaction over the immobilized organocatalyst is analogous to the mechanism of enzymatic reactions. For instance, an organocatalyst complex on a well-defined support with controlled surface properties can act in an analogous fashion as an active site in the channel of an enzyme. Reactants bind on the G1H sites by the interaction between surface functionality on the support and the organocatalyst. Lower loading of catalyst on a support enhances the catalytic activity (FIGS. 16A and 1D) by forming a more uniform distribution of the complex on the support.

The nature of series [4]: Lactose hydrolysis in the presence of Ca(OAc)2. The note with it: 100° C. As for the experimental part:
The glass vial was capped to prevent the solvent from evaporation, and reaction was carried out at 100° C. in an oil bath with 800 rpm stirring. 0.105 g (0.1 mL) of liquid sample solution was collected each day (every 18-26 h) for 5 days and diluted in 0.399 g (0.4 mL) of MQ water for the reaction kinetics analysis. The diluted sample was analyzed by HPLC. Experimentally measured rates at different concentrations of Ca(OAc)2 were analyzed by the kinetic model (Equations 1-4).
as §1

For series [5] the following is noted: at 100° C.; extrapolated; cited from earlier work.
The mark [6] stands for this setting: homogeneous (non-immobilized) catalyst, amino acids 82-84 mM, 95% confidential intervals.

The values below come from patent US20240131499A1, “BIOMIMETIC CATALYSTS FOR DIVERSE INDUSTRIAL APPLICATIONS IN CHEMICAL REACTIONS” (Wisconsin Alumni Research Foundation, priority 2022, published 2024).

Values joined by “and” are separate entries in the source; they are usually repeats but may differ in a detail not shown here. Equal entries are not always repeated.

Consider `O=C(O)CCC(C(=O)O)N1C(=O)CCC1=O` (centres unmarked) [GA-MAL-H], for which, in series [1], the “higher kG1H than kG1H for glutamic acid” value worked out at 31.9% and the “rate constant for the active site G1H (kG1H)” value (“rate constant … (kG1H)” for short) is 0.000389 M⁻¹ s⁻¹. In series [2], the “suppression of kd,app/kapp compared to glutamic acid” value came out at 55.2%. In series [2] (setting [6]), the “kapp, apparent rate constant for lactose hydrolysis” value (shortened to “kapp, apparent rate constant”) is 0.0077 ± 0.0002 h⁻¹ and the “kd,app, apparent rate constant for glucose degradation” value (“kd,app, apparent rate constant” below) amounted to 6.11e-07 ± 2.2e-07 s⁻¹.
With `[H+]` [H^+], the “rate constant for H^+ (kH+)” value in series [1] (kapp=kH+·[H^+]) amounted to 0.0002639 M⁻¹ s⁻¹.
As for `O=C(O)CCC(C(=O)O)N1C(=O)C2C(C1=O)C1(CCC(=O)CCC34CCC(CO)(O3)C3C(=O)N(C(CCC(=O)O)C(=O)O)C(=O)C34)CCC2(CO)O1` (centres unmarked) [PHAH-GA-MAL-H], the solubility in series [3] is ~37000 µM and ~27000 µg/mL. Also, in series [1], the “higher kG1H than GA-MAL-H” value was 74.2%, the “kG1H relative to glutamic acid” value turned out to be 2.3 times and the “rate constant … (kG1H)” value is 0.000681 M⁻¹ s⁻¹. Moreover, in series [2] (37 mM homogeneous catalyst), the “kapp, apparent rate constant” value came to 0.0117 ± 0.0004 h⁻¹ and the “kd,app, apparent rate constant” value is 4.44e-07 ± 1.4e-07 s⁻¹. For the same compound, in series [2] (70 mM homogeneous catalyst), the “kapp, apparent rate constant” value was found to be 0.0103±0.0004 h^− and the “kd,app, apparent rate constant” value amounted to 2.78e-07 ± 1.7e-07 s⁻¹. Also, in series [2] (setting [6]), the “kapp, apparent rate constant” value stood at 0.0117 ± 0.0004 h⁻¹ and the “kd,app, apparent rate constant” value was determined as 4.44e-07 ± 1.4e-07 s⁻¹.
With `CC(=O)O` [acetic acid], the “rate constant for the non-dissociated acetic acid (kAA)” value in series [1] (kapp=kH+·[H^+]+kAA·[AA]) turned out to be 1.42e-06 M⁻¹ s⁻¹. Also, the “kapp, apparent rate constant” value in series [2] (setting [6]) is 0.0015 ± 0.0001 h⁻¹.
As to `N[C@@H](CCC(=O)O)C(=O)O` [glutamic acid, L-glutamic acid], the “Rate of lactose hydrolysis” value came to 0.0005 M/h in series [4] ([Ca(OAc)2] 24 mM), 0.0026 M/h in series [4] ([Ca(OAc)2]=0 mM), 0.0016 M/h in series [4] ([Ca(OAc)2]=5 mM) and 0.0007 M/h in series [4] ([Ca(OAc)2]=16 mM). Further, the “kapp, apparent rate constant” value was 0.0011 ± 0.0001 h⁻¹ in series [4] ([Ca(OAc)2] 24 mM); 0.0060 ± 0.0004 h⁻¹ in series [4] ([Ca(OAc)2]=0 mM); 0.0037 ± 0.0002 h⁻¹ in series [4] ([Ca(OAc)2]=5 mM); 0.0016 ± 0.0001 h⁻¹ in series [4] ([Ca(OAc)2]=16 mM); 0.0060 ± 0.0004 h⁻¹ in series [2] (setting [6]). Moreover, in series [5], the “pKa,G1H (α-carboxylic acid)” value is reported as 2.24. For the same compound, in series [5], the “pKa,G2H (side-chain carboxylic acid)” value is 4.55. Besides, the “pKa,GNH (amine)” value in series [5] is recorded as 9.12. Also, the “rate constant … (kG1H)” value in series [1] was 0.00029567 M⁻¹ s⁻¹ and 0.000294 M⁻¹ s⁻¹.
As for `O=S(=O)(O)O` [sulfuric acid], in series [2] (setting [6]), the “kapp, apparent rate constant” value was determined as 0.1615 ± 0.0075 h⁻¹ and the “kd,app, apparent rate constant” value was found to be 1.08e-06 ± 5.42e-06 s⁻¹.
The corresponding values for `N[C@@H](Cc1ccc(O)cc1)C(=O)O` [tyrosine, L-tyrosine] are 0.0004 ± 0.0001 h⁻¹ and 1.4e-07 ± 3.22e-06 s⁻¹.
